The assay deals with T1, BACE1 (Homo sapiens, UniProt P56817).
T1 construct: endogenous in cells; host or cells: HEK-293 (stably transfected with wild type APP695 only)
Put plainly: Cellular BACE1 Inhibition Assay (in vitro cellular Amyloidβ 1-40 production assay, HTRF immunoassay). The class given is cell-based. As to the method: The BACE inhibition properties of the compounds of the invention may be determined by the following in vitro cellular Amyloidβ 1-40 production assay.
Inhibition of Amyloidβ1-40 production was determined by incubating cells with compound for 48 hours and quantifying the level of Amyloidβ 1-40 using an HTRF immunoassay.
Materials and Methods: HEK-293 cells stably transfected with a DNA construct containing the coding sequence for the wild type APP695 sequence were grown in DMEM supplemented with 10% fetal bovine serum, penicillin/streptomycin and 150 μg/mL G418. Cells were plated in 96-well plates at 35,000 cells/well and allowed to attach for 8-12 hours. Media was changed to DMEM supplemented with 10% fetal bovine serum, penicillin/streptomycin 15 minutes prior to compound addition. Diluted compounds were then added at a final concentration of 0.5% DMSO. After 48 hours, 4 μL of media from each well was added to a corresponding well of a 384 well plate (Perkin Elmer Cat#6008280) containing the HTRF reagents. HTRF reagents were obtained from the CisBio Amyloidβ 1-40 peptide assay kit (Cat#62B40PEC) and were prepared as follows anti-peptide β (1-40)-Cryptate and anti-peptide β (1-40)-XL655 were stored in 2 plate aliquots at −80° C. Diluent and Reconstitution buffer were stored at 4° C. Aliquots of the two antibodies were diluted 1:100 with Reconstitution buffer, and this mixture was diluted 1:2 with Diluent. 12 μL of the reagent mixture was added to the required wells of the 384 well assay plate. The assay plate was incubated at 4° C. for 17 hours and then analyzed for fluorescence at 665 and 620 nm.

The structures appear in SMILES notation.

T1 sequence (P56817 46-501): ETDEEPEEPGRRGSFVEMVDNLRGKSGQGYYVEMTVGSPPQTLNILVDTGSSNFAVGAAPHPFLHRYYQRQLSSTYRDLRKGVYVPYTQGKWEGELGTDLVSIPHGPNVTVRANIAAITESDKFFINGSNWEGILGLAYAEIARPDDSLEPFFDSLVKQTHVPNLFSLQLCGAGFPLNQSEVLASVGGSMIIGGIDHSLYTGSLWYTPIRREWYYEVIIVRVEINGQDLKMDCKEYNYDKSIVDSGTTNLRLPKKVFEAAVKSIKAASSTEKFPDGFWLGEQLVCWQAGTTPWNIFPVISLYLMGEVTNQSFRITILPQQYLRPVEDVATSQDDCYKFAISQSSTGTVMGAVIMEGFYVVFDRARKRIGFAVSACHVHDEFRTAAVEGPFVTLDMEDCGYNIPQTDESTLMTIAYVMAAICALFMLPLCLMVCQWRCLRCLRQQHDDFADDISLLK

As a reminder, the IC50 is the concentration needed to halve the response being measured. A higher IC50 goes with weaker potency. Consider `CN1C(=O)[C@]2(N=C1N)c1cc(-c3cncnc3)ccc1C[C@]1(C)CC12` (single isomer, unassigned) [Example 155], for which half-maximal inhibition (IC50) required 27.1 nM.

`CN1C(=O)C2(CC(C)(C)Cc3ccc(/C=C/C4CC4)cc32)N=C1N` (stereo not drawn) [Example 15, (E)-2-amino-7′-(2-cyclopropylvinyl)-1,3′,3′-trimethyl-3′,4′-dihydro-2′H-spiro[imidazole-4,1′-naphthalen]-5(1H)-one]: the IC50 turned out to be 76.7 nM.

In turn, `CN1C(=O)C2(CC(C)(C)Cc3ccc(C#CC4CC4)cc32)N=C1N` (stereo not drawn) [Example 17, 2-amino-7′-(cyclopropylethynyl)-1,3′,3′-trimethyl-3′,4′-dihydro-2′H-spiro[imidazole-4,1′-naphthalen]-5(1H)-one] registered an IC50 of 81.9 nM.

In turn, `CN1C(=O)C2(CC(C)(C)Cc3ccc(C#CCCCC#N)cc32)N=C1N` (stereo not drawn) [Example 18, 6-(2-amino-1,3′,3′-trimethyl-5-oxo-1,3′,4′,5-tetrahydro-2′H-spiro[imidazole-4,1′-naphthalene]-7′-yl)hex-5-ynenitrile] displayed an IC50 of 37.4 nM.

`CN1C(=O)C2(CC(C)(C)Cc3ccc(-c4cccc(Cl)c4)nc32)N=C1N` (stereo not drawn) [Example 20, 2-amino-2′-(3-chlorophenyl)-1,6′,6′-trimethyl-6′,7′-dihydro-5′H-spiro[imidazole-4,8′-quinolin]-5(1H)-one] had an IC50 of 1430 nM.

Molecule `CC1CCc2ccc(-c3cccc(Cl)c3)cc2C12N=C(N)N(C)C2=O` (stereo not drawn) [Example 21, 2-amino-7′-(3-chlorophenyl)-1,2′-dimethyl-3′,4′-dihydro-2′H-spiro[imidazole-4,1′-naphthalen]-5(1H)-one] registered an IC50 of 226 nM.

Take `CC(C)CCc1ccc2c(c1)C1(N=C(N)N(C)C1=O)C(C)CC2` (stereo not drawn) [Example 22]: the IC50 is 264 nM.

Turning to `CN1C(=O)C2(CCCc3ccc(-c4cncc(Cl)c4)cc32)N=C1N` (stereo not drawn) [Example 23, 2-amino-7′-(5-chloropyridin-3-yl)-1-methyl-3′,4′-dihydro-2′H-spiro[imidazole-4,1′-naphthalen]-5(1H)-one], the IC50 turned out to be 28.5 nM.

Regarding `CN1C(=O)C2(CCCc3ccc(-c4cccc(Cl)c4)cc32)N=C1N` (stereo not drawn) [Example 24, 2-amino-7′-(3-chlorophenyl)-1-methyl-3′,4′-dihydro-2′H-spiro[imidazole-4,1′-naphthalen]-5(1H)-one], the IC50 was 189 nM.

Consider `CN1C(=O)C2(CCCc3ccc(-c4cncnc4)cc32)N=C1N` (stereo not drawn) [Example 25, 2-Amino-1-methyl-7′-(pyrimidin-5-yl)-3′,4′-dihydro-2′H-spiro[imidazole-4,1′-naphthalen]-5(1H)-one], for which the IC50 amounted to 104 nM.

In turn, `CN1C(=O)C2(N=C1N)c1cc(-c3cncc(Cl)c3)ccc1CCC2(C)C` (stereo not drawn) [Example 26, 2-amino-7′-(5-chloropyridin-3-yl)-1,2′,2′-trimethyl-3′,4′-dihydro-2′H-spiro[imidazole-4,1′-naphthalen]-5(1H)-one] showed an IC50 of 19.7 nM.

Consider `CN1C(=O)C2(N=C1N)c1cc(-c3cncnc3)ccc1CCC2(C)C` (stereo not drawn) [Example 27, 2-amino-1,2′,2′-trimethyl-7′-(pyrimidin-5-yl)-3′,4′-dihydro-TH-spiro[imidazole-4,1′-naphthalen]-5(1H)-one], for which the IC50 was 10.1 nM.

In the case of `CN1C(=O)C2(N=C1N)c1cc(-c3cccc(C#N)c3)ccc1CCC2(C)C` (stereo not drawn) [Example 28, 3-(2-amino-1,2′,2′-trimethyl-5-oxo-1,3′,4′,5-tetrahydro-2′H-spiro[imidazole-4,1′-naphthalene]-7′-yl)benzonitrile], the IC50 is 92.5 nM.

On to `CN1C(=O)[C@@]2(N=C1N)c1cc(-c3cccc(Cl)c3)ccc1CC[C@H]2CC1CCN(CC(F)F)CC1` [Example 32, (1′S,2′S)-2-amino-7′-(3-chlorophenyl)-2′-((1-(2,2-difluoroethyl)piperidin-4-yl)methyl)-1-methyl-3′,4′-dihydro-2′H-spiro[imidazole-4,1′-naphthalen]-5(1H)-one], for which half-maximal inhibition (IC50) required 48.6 nM.

On to `CN1C(=O)C2(N=C1N)c1cc(-c3cccc(Cl)c3)ccc1CCC21CCOCC1` (stereo not drawn) [Example 35, 2-amino-7″-(3-chlorophenyl)-1-methyl-2′,3′,5′,6′-tetrahydro-3″,4″-dihydro-2″H-dispiro[midazol-4,1″-naphthalen-2″,4′-pyran]-5(1H)-one], for which the IC50 stood at 192 nM.

`CN1C(=O)C2(CC3(CCC3)Cc3ccc(-c4cccc(Cl)c4)cc32)N=C1N` (stereo not drawn) [Example 37, 2-amino-7′-(3-chlorophenyl)-1-methyl-5-oxo-3′,4′-dihydro-2′H-dispiro[imidazol-4,1′-naphthalen-3′,1″-cyclobutyl]-5 (1H)-one] yielded an IC50 of 241 nM.

The molecule `CN1C(=O)C2(CC3(CCOCC3)Cc3ccc(-c4cc(F)cc(Cl)c4)cc32)N=C1N` (stereo not drawn) [Example 42, 2-amino-7″-(3-fluoro-5-chlorophenyl)-1-methyl-2′,3′,5′,6′-tetrahydro-3″,4″-dihydro-2″H-dispiro[imidazol-4,1″-naphthalen-3″,4′-pyran]-5(1H)-one] returned an IC50 of 121 nM.

`CN1C(=O)C2(CC3(CCOCC3)Cc3ccc(/C=C/C(C)(C)C)cc32)N=C1N` (stereo not drawn) [Example 45, (E)-2-amino-7″-(3,3-dimethylbut-1-enyl)-1-methyl-2′,3′,5′,6′-tetrahydro-3″,4″-dihydro-2″H-dispiro[imidazol-4,1″-naphthalen-3″,4′-pyran]-5(1H)-one]: it took 69.6 nM to reach half-maximal inhibition (IC50).

For `CC1CCc2ccc(-c3cc(F)cc(Cl)c3)cc2C12N=C(N)N(C)C2=O` (stereo not drawn) [Example 56, 2-amino-7′-(3-chloro-5-fluorophenyl)-1,2′-dimethyl-3′,4′-dihydro-2′H-spiro[imidazole-4,1′-naphthalen]-5(1H)-one], 361 nM corresponded to half-maximal inhibition (IC50).

For the molecule `CC1CCc2ccc(-c3cccc(OC(F)F)c3)cc2C12N=C(N)N(C)C2=O` (stereo not drawn) [Example 57, 2-amino-7′-(3-(difluoromethoxy)phenyl)-1,2′-dimethy1-3′,4-dihydro-2′H-spiro[imidazole-4,1′-naphthalen]-5(1H)-one], the IC50 turned out to be 363 nM.

For the molecule `CN1C(=O)[C@@]2(N=C1N)c1cc(-c3cccc(Cl)c3)ccc1CC[C@@H]2CC1CCN(CC(F)F)CC1` [Example 62, (1′S,2′R)-2-amino-7′-(3-chlorophenyl)-2′-((1-(2,2-difluoroethyl)piperidin-4-yl)methyl)-1-methyl-3′,4′-dihydro-2′H-spiro[imidazole-4,1′-naphthalen]-5(1H)-one], the IC50 was determined as 306 nM.

In turn, `CN1C(=O)C2(CC3(CCOCC3)Cc3ccc(-c4cncnc4)cc32)N=C1N` (stereo not drawn) [Example 74, 2-amino-7″-(pyrimidin-5-yl)-1-methyl-2′,3′,5′,6′-tetrahydro-3″,4″-dihydro-2″H-dispiro[imidazol-4,1″- naphthalen-3″,4′-pyran]-5(1H)-one] registered an IC50 of 258 nM.

The molecule `CC1(C)Cc2ccc(NC(=O)c3ccc(Br)cn3)cc2C2(COC(N)=N2)C1` (stereo not drawn) [Example 88, N-(2′-amino-3,3-dimethyl-3,4-dihydro-2H,5′H-spiro[naphthalene-1,4′-oxazole]-7-yl)-5-bromopicolinamide] displayed an IC50 of 46.3 nM.

With `Cc1nc(C(=O)Nc2ccc3c(c2)C2(COC(N)=N2)CC(C)(C)C3)co1` (stereo not drawn) [Example 90, N-(2′-amino-3-dimethyl-3,4-dihydro-2H,5′H-spiro[naphthalene-1,4′-oxazole]-7-yl)-2-methyloxazole-4-carboxamide], it took 16.8 nM to reach half-maximal inhibition (IC50).

These data come from US20120065195A1, “COMPOUNDS FOR TREATING NEURODEGENERATIVE DISEASES” (priority 2010, published 2012).
